This note sets out measurements from BindingDB's records for patent US20230414632 (Centre National De La Recherche Scientifique, 2023).

pIC50: −log10 of the molar value.

Lysine--tRNA ligase, sequence (Q15046 whole entry): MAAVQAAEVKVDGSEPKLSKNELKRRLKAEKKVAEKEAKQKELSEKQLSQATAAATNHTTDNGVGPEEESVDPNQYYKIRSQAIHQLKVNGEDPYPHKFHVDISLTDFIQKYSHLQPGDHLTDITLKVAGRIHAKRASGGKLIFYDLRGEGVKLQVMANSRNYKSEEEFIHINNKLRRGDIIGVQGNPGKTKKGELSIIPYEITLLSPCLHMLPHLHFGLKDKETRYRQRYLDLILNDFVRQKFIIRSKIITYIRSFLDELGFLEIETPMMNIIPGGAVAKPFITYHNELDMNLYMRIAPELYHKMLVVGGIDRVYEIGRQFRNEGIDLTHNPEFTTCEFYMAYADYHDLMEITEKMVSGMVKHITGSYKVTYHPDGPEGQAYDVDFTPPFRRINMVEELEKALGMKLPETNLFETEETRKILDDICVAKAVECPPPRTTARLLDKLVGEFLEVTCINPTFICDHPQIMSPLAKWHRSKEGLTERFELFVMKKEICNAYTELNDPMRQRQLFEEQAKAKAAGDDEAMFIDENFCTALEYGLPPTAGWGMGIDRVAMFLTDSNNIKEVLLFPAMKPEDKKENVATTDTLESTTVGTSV

In the assay the target is Lysine--tRNA ligase (Homo sapiens, UniProt Q15046). Briefly: Homogeneous Time-Resolved Fluorescence Assay. The protocol:
Homogeneous time-resolved fluorescence (HTRF) assays were performed in black, half-area, flat bottom, 96-well microplates (Costar #3694). Human mitochondrial LysRS with a C-terminal HA-tag (mLysRS-HA), diluted in HTRF buffer (10 mM Tris-HCl pH 7.5, 50 mM NaCl, 10 mM 2-mercaptoethanol, BSA at 1 mg/ml) was added (20 μl at a dimer concentration of 3.75 nM) in the wells of microplates placed on ice. Compounds of formula I or II (1 μl of a 10 mM solution in DMSO) were then added to the wells, and mixing was achieved by pipetting up and down 3-times 10 μl. After centrifugation at 900 g for 1 min at 4° C., plates were placed at 4° C. on thermal modules of an epMotion 5075 v automated pipetting system (Eppendorf). A 10 μl sample of IN-H6 diluted in HTRF buffer at a dimer concentration of 250 nM was added and mixing was achieved by pipetting up and down 3-times 15 μl. Incubation was conducted at 4° C. for 1 h. A 10 μl aliquot of a mix of antibodies prepared in HTRF buffer, directed to the His-tag, conjugated with Eu3+ cryptate (Cisbio #61HISKLB, 0.125 μl per test, prepared as recommended by the supplier), and to the HA-tag, conjugated with XL665 (Cisbio #610HAXLB, 0.375 μl per test, prepared as recommended by the supplier), was added and mixing was achieved by pipetting up and down 3-times 15 μl. Incubation was conducted at 4° C. for 30 min.
Broadly, the pIC50 is −log10 of the IC50, conventionally taken in molar units. Read a low pIC50 as a high IC50. As to `CCOC(=O)C1=C(C)NC(C)=C(C(=O)OCC)C1c1ccccc1/C=C/C(=O)OC(C)(C)C` [US20230414632, Compound I-a], the pIC50 is 4.19. Under `COCCOC(=O)C1=C(C)NC(C)=C(C(=O)OC/C=C/c2ccccc2)C1c1cccc([N+](=O)[O-])c1` (stereo unspecified) [US20230414632, Compound I-b] stands 3.40; under `COC(=O)C1=C(C)NC(C)=C(C(=O)OCCN2CCN(C(c3ccccc3)c3ccccc3)CC2)C1c1cccc([N+](=O)[O-])c1` (stereo unspecified) [US20230414632, Compound I-g], 3.40; under `COC(=O)C1=C(C)NC(C)=C(C(=O)OCC(C)C)C1c1ccccc1[N+](=O)[O-]` (stereo unspecified) [US20230414632, Compound I-e], 3.35.

Consider `COC(=O)C1=C(C)NC(C)=C(C(=O)OC(C)(C)CN(C)CCC(c2ccccc2)c2ccccc2)C1c1cccc([N+](=O)[O-])c1` (stereo unspecified) [US20230414632, Compound I-c], for which the negative-log IC50 (pIC50) is 3.49. Under `COC(=O)C1=C(C)NC(C)=C(C(=O)OC2CCCN(Cc3ccccc3)C2)C1c1cccc([N+](=O)[O-])c1` (stereo unspecified) [US20230414632, Compound I-f] stands 3.35.
